Experimental data from patent publication US20230000813A1, “COMPOUND FOR THE TREATMENT OF BOVINE OR SWINE RESPIRATORY DISEASE” (Intervet Inc., priority 2016, published 2023).
Values after ≈ are worked out from the molar mass of the structure shown.

Assays:
Experiment in all cases: MIC, broth-microdilution (CLSI VET01-A4)
Format in all cases: cell-based
[1] = system: Mannheimia haemolytica MH 13065 (XB0446-6003.9, BRD field isolate)
Summary of the method: (§1)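 MIC read by eye as lowest compound concentration without visible growth (no turbidity), interpreted per CLSI VET01-S3. Doubling-dilution broth-microdilution trays, run according to CLSI VET01-A4.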

[2] = system: Mannheimia haemolytica MH 13093 (XB0472-6014.1, BRD field isolate)
Summary of the method: as §1

[3] = system: Pasteurella multocida PM 12080 (IV102277-0093, BRD field isolate); conditions: Pasteurella multocida PM 12080; for MIC: read-out: MIC PM 12080
Summary of the method: (§2)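 Test compound is serially diluted twofold across microdilution trays, bacteria are grown, and wells are inspected by eye. The lowest concentration showing no growth is recorded as the MIC.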

[4] = system: Pasteurella multocida PM 6391 (ATCC 43137, reference strain); conditions: Pasteurella multocida PM 6391; for MIC: read-out: MIC PM 6391
Summary of the method: as §2

[5] = system: Mannheimia haemolytica MH 10720 (154, BRD field isolate); conditions: Mannheimia haemolytica MH 10720; for MIC: read-out: MIC MH 10720
Summary of the method: as §2

[6] = system: Mannheimia haemolytica MH 6357 (M7/2, reference strain, cattle infection strain); conditions: Mannheimia haemolytica MH 6357; read-out: MIC MH 6357
Summary of the method: as §2

[7] = system: Mannheimia haemolytica MH 12587 (1071, BRD field isolate, macrolide-resistance: erm+, E+); conditions: Mannheimia haemolytica MH 12587, macrolide-resistant
Summary of the method: as §2

[8] = system: Pasteurella multocida PM 10775 (080130003051, BRD field isolate); conditions: Pasteurella multocida PM 10775
Summary of the method: as §2

[9] = system: Mannheimia haemolytica MH 6374 (ATCC 33396, reference strain); conditions: Mannheimia haemolytica MH 6374; read-out: MIC MH 6374
Summary of the method: as §2

[10] = system: Pasteurella multocida PM 6267 (P 2225 (L386), reference strain, mouse infection strain); conditions: Pasteurella multocida PM 6267; for MIC: read-out: MIC PM 6267
Summary of the method: as §2

Structure (SMILES)	MIC [1] [µM]	MIC [2] [µM]	MIC [3] [µM]	MIC [4] [µM]	MIC [5] [µM]	MIC [6] [µM]	MIC MH 12587 [7] [µM]	MIC PM 10775 [8]	MIC [9] [µM]	MIC PM 6267 [10]	MIC MH 10720 [5]	MIC [10] [µM]	MIC PM 12080 [3]	MIC PM 6391 [4]	MIC ([8]; read-out: MIC PM 10775) [µM]
CC(C)C(NC(=O)c1ccc(C#Cc2ccc(CNCc3ccnc(Cl)c3)cc2)cc1)C(=O)NO (stereo not shown) [Compound 288]	0.8 (≈ 0.393 µg/mL)	0.8 (≈ 0.393 µg/mL)	0.2 (≈ 0.0982 µg/mL)	0.4 (≈ 0.196 µg/mL)	0.2 (≈ 0.0982 µg/mL)	0.4 (≈ 0.196 µg/mL)	1.6 (≈ 0.786 µg/mL)	<=0.1 μM	0.8 (≈ 0.393 µg/mL)	<=0.1 μM					
CCC(C)C(NC(=O)c1ccc(C#Cc2ccc(CNCc3cccnc3)cc2)cc1)C(=O)NO (stereo not shown) [Compound 299]	0.8 (≈ 0.376 µg/mL)	0.8 (≈ 0.376 µg/mL)	0.4 (≈ 0.188 µg/mL)	1.6 (≈ 0.753 µg/mL)		0.4 (≈ 0.188 µg/mL)	1.6 (≈ 0.753 µg/mL)	<=0.1 μM	0.8 (≈ 0.376 µg/mL)		<=0.1 μM	0.2 (≈ 0.0941 µg/mL)			
CSC(C)(C)[C@H](NC(=O)c1ccc(C#Cc2ccc(CNCc3ccncc3)s2)cc1)C(=O)NO [Compound 740]	0.8 (≈ 0.407 µg/mL)	0.8 (≈ 0.407 µg/mL)		0.4 (≈ 0.203 µg/mL)	0.2 (≈ 0.102 µg/mL)	0.8 (≈ 0.407 µg/mL)	1.6 (≈ 0.814 µg/mL)	<=0.1 μM	0.8 (≈ 0.407 µg/mL)			0.4 (≈ 0.203 µg/mL)	<=0.1 μM		
CSC(C)(C)[C@H](NC(=O)c1ccc(C#Cc2ccc(CNCc3cccnc3)cc2)cc1)C(=O)NO [Compound 593]	0.4 (≈ 0.201 µg/mL)	0.8 (≈ 0.402 µg/mL)	0.2 (≈ 0.101 µg/mL)	0.8 (≈ 0.402 µg/mL)	0.2 (≈ 0.101 µg/mL)	0.4 (≈ 0.201 µg/mL)	0.8 (≈ 0.402 µg/mL)	<=0.1 μM	0.8 (≈ 0.402 µg/mL)	<=0.1 μM					
CC(C)(O)[C@H](NC(=O)c1ccc(C#Cc2ccc(CNCc3nccs3)s2)cc1)C(=O)NO [Compound 735]	0.2 (≈ 0.0969 µg/mL)	0.4 (≈ 0.194 µg/mL)				0.4 (≈ 0.194 µg/mL)	0.4 (≈ 0.194 µg/mL)		0.2 (≈ 0.0969 µg/mL)	<=0.1 μM	<=0.1 μM		<=0.1 μM	<=0.1 μM	0.2 (≈ 0.0969 µg/mL)
C=CCNCc1ccc(C#Cc2ccc(C(=O)NC(C(=O)NO)C(C)(C)S(C)(=O)=O)cc2)cc1 (stereo not shown) [C. 602]	0.8 (≈ 0.387 µg/mL)	0.8 (≈ 0.387 µg/mL)				1.6 (≈ 0.774 µg/mL)	1.6 (≈ 0.774 µg/mL)	<=0.1 μM	0.8 (≈ 0.387 µg/mL)	<=0.1 μM	<=0.1 μM		<=0.1 μM	<=0.1 μM	
C[C@@H](O)[C@H](NC(=O)c1ccc(C#Cc2ccc(N)cc2)cc1)C(=O)NO [C. 245, 4-[2-(4-aminophenyl)ethynyI]-N-[(1S,2R)-2-hydroxy-1-(hydroxycarbamoyl)propyl]benzamide]	0.4 (≈ 0.141 µg/mL)	0.4 (≈ 0.141 µg/mL)		0.2 (≈ 0.0707 µg/mL)		0.2 (≈ 0.0707 µg/mL)	0.8 (≈ 0.283 µg/mL)	<=0.1 μM	0.4 (≈ 0.141 µg/mL)	<=0.1 μM	<=0.1 μM		<=0.1 μM		
CSC(C)(C)[C@H](NC(=O)c1ccc(C#Cc2ccc(CNCc3nccs3)cc2)cc1)C(=O)NO [Compound 600]	0.8 (≈ 0.407 µg/mL)	0.8 (≈ 0.407 µg/mL)		0.4 (≈ 0.203 µg/mL)	0.2 (≈ 0.102 µg/mL)	0.8 (≈ 0.407 µg/mL)	1.6 (≈ 0.814 µg/mL)	<=0.1 μM	1.6 (≈ 0.814 µg/mL)	<=0.1 μM			<=0.1 μM		
CC(C)(C(NC(=O)c1ccc(C#Cc2ccc(CNCc3ccccn3)cc2)cc1)C(=O)NO)S(C)(=O)=O (stereo not shown) [C. 615]	1.6 (≈ 0.855 µg/mL)	0.8 (≈ 0.428 µg/mL)				1.6 (≈ 0.855 µg/mL)	1.6 (≈ 0.855 µg/mL)	<=0.1 μM	0.4 (≈ 0.214 µg/mL)	<=0.1 μM	<=0.1 μM		<=0.1 μM	<=0.1 μM	
CC(C)(O)[C@H](NC(=O)c1ccc(C#Cc2ccc(CNCc3ccncc3)cc2)cc1)C(=O)NO [Compound 651]	0.2 (≈ 0.0945 µg/mL)	0.4 (≈ 0.189 µg/mL)				0.4 (≈ 0.189 µg/mL)	0.4 (≈ 0.189 µg/mL)	<=0.1 μM	0.2 (≈ 0.0945 µg/mL)	<=0.1 μM	<=0.1 μM		<=0.1 μM	<=0.1 μM	
